The source of these data is patent US10988474B2, “Compounds acting at multiple prostaglandin receptors giving a general anti-inflammatory response” (ALLERGAN, INC., priority 2011, dated 2021).

What all share (assay type): cell-based
The target in experiment [1] is T1, human prostanoid IP receptor (Homo sapiens, UniProt P43119).
T1 construct: expressed in transfected cells
Put plainly: FLIPR Ca2+ signaling PG antagonist assay, IP stable cell line. Particulars: HEK-293 EBNA cells, human recombinant IP, no exogenous G-protein; standard agonist Cicaprost. Summed up: (§1)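 HEK-293 EBNA stable lines; EP2 co-expressed with chimeric Gqs, EP1/IP/TP with no exogenous G protein. Fluo-4AM-loaded cells pretreated 4.5 min at 37 °C with compound (0.1–30 μM; TP 0.067–1 μM), then standard agonist (PGE2, cicaprost, U-46619) 10^−11–10^−5 M (TP 10^−12–10^−6 M); peak fluorescence read 3.5 min, nonlinear regression.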

Experiment [2] has as its target T2, human prostanoid EP2 receptor (Homo sapiens, UniProt P43116).
T2 construct: expressed in transfected cells
Kind of experiment: FLIPR Ca2+ signaling PG antagonist assay, EP2 stable cell line. The following applies: HEK-293 EBNA cells, human recombinant EP2 with chimeric Gqs; standard agonist PGE2. Summed up:
as §1

The target of experiment [3] is T3, human prostanoid TP receptor (Homo sapiens, UniProt P21731).
T3 construct: expressed in transfected cells
T3 sequence (P21731 1-343): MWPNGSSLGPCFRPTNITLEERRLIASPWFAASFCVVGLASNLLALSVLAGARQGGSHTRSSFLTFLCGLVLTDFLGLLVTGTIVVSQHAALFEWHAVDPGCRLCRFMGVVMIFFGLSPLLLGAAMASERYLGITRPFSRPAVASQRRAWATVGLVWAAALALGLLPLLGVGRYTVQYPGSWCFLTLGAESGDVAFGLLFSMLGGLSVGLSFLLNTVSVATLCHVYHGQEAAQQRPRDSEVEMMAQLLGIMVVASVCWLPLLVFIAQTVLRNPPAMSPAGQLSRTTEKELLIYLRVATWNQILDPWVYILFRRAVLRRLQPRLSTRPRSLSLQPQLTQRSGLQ
Kind of experiment: FLIPR Ca2+ signaling PG antagonist assay, TP stable cell line. The following applies: HEK-293 EBNA cells, human recombinant TP, no exogenous G-protein; standard agonist U-46619. Summed up: as §1

Experiment [4] has as its target T4, human prostanoid DP1 receptor (Homo sapiens, UniProt Q13258).
T4 construct: expressed in transfected cells
T4 sequence (Q13258 1-359): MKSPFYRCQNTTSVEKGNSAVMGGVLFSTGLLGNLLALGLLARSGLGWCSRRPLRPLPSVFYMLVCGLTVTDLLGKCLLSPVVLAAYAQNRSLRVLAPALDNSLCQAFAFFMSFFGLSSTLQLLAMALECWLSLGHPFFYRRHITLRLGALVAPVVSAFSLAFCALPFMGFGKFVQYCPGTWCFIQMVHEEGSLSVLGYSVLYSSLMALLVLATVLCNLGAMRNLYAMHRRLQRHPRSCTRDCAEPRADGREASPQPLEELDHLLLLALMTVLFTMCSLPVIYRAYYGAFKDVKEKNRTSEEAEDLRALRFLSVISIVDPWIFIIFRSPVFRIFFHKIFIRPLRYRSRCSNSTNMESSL
Kind of experiment: FLIPR Ca2+ signaling PG antagonist assay, DP1 stable cell line. Particulars: HEK-293 EBNA cells, human recombinant DP1 with chimeric Gqs; standard agonist BW 245C; read-out: DP (Kb, PG antagonist activity). Summed up: (§2)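 Stable HEK-293 EBNA lines (DP1 with chimeric Gqs, EP3 with Gqi, EP1 and FP without exogenous G protein) were Fluo-4AM-loaded and pretreated 4.5 min at 37 °C with compound (0.1–30 μM). Agonist (BW 245C for DP1, PGE2 for EP1/EP3, 17-phenyl-PGF2α for FP) was then added at 10^−11–10^−5 M. Peak Ca2+ fluorescence was taken relative to agonist at 10^−6 M.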

Experiment [5] deals with T5, human prostanoid FP receptor (Homo sapiens, UniProt P43088).
T5 construct: expressed in transfected cells
Put plainly: FLIPR Ca2+ signaling PG antagonist assay, FP stable cell line. The following applies: HEK-293 EBNA cells, human recombinant FP, no exogenous G-protein; standard agonist 17-phenyl-PGF2α. The essentials: as §2

The Kb is the affinity of an antagonist, worked out from how it opposes an agonist.

Some results are limits rather than exact numbers.

T2 sequence (P43116 whole entry): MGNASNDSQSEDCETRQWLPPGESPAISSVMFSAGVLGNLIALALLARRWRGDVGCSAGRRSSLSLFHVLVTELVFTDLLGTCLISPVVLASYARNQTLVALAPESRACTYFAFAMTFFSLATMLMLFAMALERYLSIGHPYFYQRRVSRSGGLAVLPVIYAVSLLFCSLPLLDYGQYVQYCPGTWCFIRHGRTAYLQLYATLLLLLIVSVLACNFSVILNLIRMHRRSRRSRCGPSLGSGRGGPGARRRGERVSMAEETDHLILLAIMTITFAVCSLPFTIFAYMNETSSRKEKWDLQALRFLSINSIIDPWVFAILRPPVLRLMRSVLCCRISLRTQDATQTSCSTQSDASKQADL
T1 sequence (P43119 whole entry): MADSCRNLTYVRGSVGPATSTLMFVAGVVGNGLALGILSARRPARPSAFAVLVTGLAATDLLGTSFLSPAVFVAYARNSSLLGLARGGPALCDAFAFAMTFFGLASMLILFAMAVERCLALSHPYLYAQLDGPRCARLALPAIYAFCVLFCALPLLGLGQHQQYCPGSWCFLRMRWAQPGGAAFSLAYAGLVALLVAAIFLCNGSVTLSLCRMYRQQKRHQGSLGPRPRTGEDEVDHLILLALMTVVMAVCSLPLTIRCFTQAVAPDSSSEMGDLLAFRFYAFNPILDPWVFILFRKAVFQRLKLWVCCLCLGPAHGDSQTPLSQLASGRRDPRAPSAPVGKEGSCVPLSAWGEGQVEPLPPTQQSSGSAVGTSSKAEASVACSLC
T5 sequence (P43088 whole entry): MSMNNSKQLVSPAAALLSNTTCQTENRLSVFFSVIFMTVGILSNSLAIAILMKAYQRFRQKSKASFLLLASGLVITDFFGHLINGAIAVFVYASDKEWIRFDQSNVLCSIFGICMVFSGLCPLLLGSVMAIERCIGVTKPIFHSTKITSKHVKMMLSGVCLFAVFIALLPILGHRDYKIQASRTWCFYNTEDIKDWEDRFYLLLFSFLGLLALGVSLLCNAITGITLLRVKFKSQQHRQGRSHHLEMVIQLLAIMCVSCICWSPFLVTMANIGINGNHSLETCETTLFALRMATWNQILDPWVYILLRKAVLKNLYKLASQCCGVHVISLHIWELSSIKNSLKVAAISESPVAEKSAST

With `CCC(CC)COc1ccc(Br)cc1Cn1ccc2ccc(C(=O)O)cc21` [Example 70, 1-[5-Bromo-2-(2-Ethyl-Butoxy)-Benzyl]-1H-Indole-6-Carboxylic Acid], the Kb in experiment [1] is no less than 10000 nM; in experiment [2] it was no less than 10000 nM; in experiment [3], 320 nM; in experiment [4], 2200 nM; in experiment [5] it was no less than 10000 nM.
`CC(C)COc1ccc(OCC(F)F)cc1Cn1ncc2cc(C(=O)O)ccc21` [Example 55, 1-[5-(2,2-Difluoro-Ethoxy)-2-Isobutoxy-Benzyl]-1H-Indazole-5-Carboxylic Acid]: the Kb in experiment [1] was no less than 10000 nM; in experiment [2], no less than 10000 nM; in experiment [3], 300 nM; in experiment [4], 1200 nM; in experiment [5], 40 nM.
In the case of `CC(C)COc1ccc(OC(F)F)cc1Cn1ncc2cc(C(=O)O)ccc21` [Example 56, 1-(5-Difluoromethoxy-2-Isobutoxy-Benzyl)-1H-Indazole-5-Carboxylic Acid], the Kb in experiment [1] is 4100 nM; in experiment [2], no less than 10000 nM; in experiment [3] it was 5 nM; in experiment [4], 1800 nM; in experiment [5] it was 24 nM.
The like results for `CC(C)COc1ccc(C(F)(F)F)cc1Cn1ncc2cc(C(=O)O)ccc21` [Example 18] were, in that order, 6500 nM, no less than 10000 nM, 4 nM, 1400 nM and 20 nM.
In the case of `CCC(CC)COc1ccc(Br)cc1Cn1nc(C)c2cc(C(=O)O)cnc21` [Example 59, 1-[5-Bromo-2-(2-Ethyl-Butoxy)-Benzyl]-3-Methyl-1H-Pyrazolo[3,4-B]Pyridine-5-Carboxylic Acid], the Kb in experiment [1] was 540 nM; in experiment [2] it was no less than 10000 nM; in experiment [3] it was 320 nM; in experiment [4] it was 520 nM; in experiment [5], 1300 nM.
The corresponding values for `CCC(CC)COc1ccc(Cl)cc1Cn1ccc2cc(C(=O)O)ccc21` [Example 1, 1-[5-Chloro-2-(2-Ethyl-Butoxy)-Benzyl]-1H-Indole-5-Carboxylic Acid] are 2200 nM, 8700 nM, 150 nM, 2100 nM and 560 nM.
As for `CC(C)COc1ccc(Cl)cc1Cn1ncc2c(C(=O)O)cccc21` [Example 36, 1-(5-Chloro-2-Isobutoxy-Benzyl)-1H-Indazole-4-Carboxylic Acid], the Kb in experiment [1] is 200 nM; in experiment [2] it was 2900 nM; in experiment [3] it was 3 nM; in experiment [4] it was 1100 nM; in experiment [5], 580 nM.
Take `CC(C)COc1ccc(Br)cc1Cn1ncc2cc(C(=O)O)ccc21` [Example 4]: the Kb amounted to 800 nM in experiment [1]; 1800 nM in experiment [2]; 2 nM in experiment [3]; 700 nM in experiment [4]; 20 nM in experiment [5].
The like results for `CCC(CC)COc1ccc(Br)cc1Cn1nc(C)c2cc(C(=O)O)ccc21` [Example 27, 1-[5-Bromo-2-(2-Ethyl-Butoxy)-Benzyl]-3-Methyl-1H-Indazole-5-Carboxylic Acid] were, in that order, 440 nM, 3640 nM, 20 nM, 1600 nM and 200 nM.
For `CCC(CC)COc1ccc(Cl)cc1Cn1ncc2ccc(C(=O)O)cc21` [Example 46, 1-[5-Chloro-2-(2-Ethyl-Butoxy)-Benzyl]-1H-Indazole-6-Carboxylic Acid], the antagonist dissociation constant (Kb) in experiment [1] was no less than 10000 nM; in experiment [2] it was no less than 10000 nM; in experiment [3] it was 150 nM; in experiment [4] it was 2500 nM; in experiment [5] it was no less than 10000 nM.
